According to patent publication US20240041976A1, “COMPOSITION AND USE” (priority 2020, published 2024):
No end group written: not given here.

Legend:
S. aureus LMG3242 = test: AAMP assay (MIC), single components and formulation mixture; assay type: cell-based, Staphylococcus aureus; details: Staphylococcus aureus, LMG3242, 24 h; read-out: MIC, single component
Procedure, shortened: (§1)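 FIC values defined synergy of a PenG/GarKS/MP1 mixture (100 μg, 50 μg, 2.5 μg per well) against single antimicrobials tested on the same plate, with MICs obtained by the AAMP assay.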

S. aureus LMG3255 = test: as above; assay type: cell-based, Staphylococcus aureus; details: Staphylococcus aureus, LMG3255, 24 h; read-out: MIC, single component
Procedure, shortened: as §1

S. aureus LMG3263 = test: as above; assay type: cell-based, Staphylococcus aureus; details: Staphylococcus aureus, LMG3263, 24 h; read-out: MIC, single component
Procedure, shortened: as §1

S. aureus LMG3264 = test: as above; assay type: cell-based, Staphylococcus aureus; details: Staphylococcus aureus, LMG3264, 24 h; read-out: MIC, single component
Procedure, shortened: as §1

S. aureus LMG3307 = test: as above; assay type: cell-based, Staphylococcus aureus; details: Staphylococcus aureus, LMG3307, 24 h; read-out: MIC, single component
Procedure, shortened: as §1

S. haemolyticus 4068 = test: microbe, parasite or virus in culture; details: for MIC of the component in combination: 4068
Procedure: (§2) Growth inhibition assays were performed in 96-well microtiter plates as described previously (Chi and Holo, 2018, supra). Briefly, 135 μl of TSB were dispensed in each well of a microtiter plate (according to the number of bacterial strains tested) except in the wells of the first row. The antimicrobials were diluted in TSB to working concentrations in a final volume of 285 μl and dispensed in the wells of the first row. The working concentrations were 100 μg/μl for garvicin KS, 10 μg/μl for micrococcin P1 and 1 mg/ml for penicillin G. From the first row, 150 μl of the antimicrobials were then serially diluted (two-fold dilutions) in a sequential fashion until the last row of the plate. Finally, 15 μl of a fresh O/N culture of each strain were added in the appropriate wells to reach a final volume of 150 μl in each well. The plates were then incubated at 37° C. for 24 h. The growth inhibition was expressed as minimum inhibitory concentration (MIC50), which refers to the minimum concentration of the antimicrobial needed to reduce at least 50% of the microbial growth compared to the untreated control. The MIC50 was assessed by optical density readings at 600 nm (O.D.600).
(§3) Synergistic interactions between antimicrobials were determined using the fractional inhibition concentration (FIC). The FIC values were calculated as follows: the sum of the FIC =FICa+FICb+FICc, where the FICa means MIC of A in combination/MIC of A alone, FICb means MIC of B in combination/MIC of B, and FICc means MIC of C in combination/MIC of C alone. Effects were considered as synergistic if FIC was ≤0.5 for two components mixture and ≤0.75 for three components mixture.
(§4) Bacteriocins and antimicrobial assays. […] These bacteriocins were all solubilized in 0.1% (vol/vol) trifluoracetic acid (TFA; Sigma-Aldrich). […] Cell growth inhibition assays and antimicrobial synergy determination was performed in line with Example 1.
(§5) To investigate whether there was synergy between the three bacteriocins (K1-EJ, GarKS and MP1), a checkboard antimicrobial assay was performed. The selected strains were treated for 5, 24 and 48 h with a range of concentrations of K1-EJ, GarKS and MP1 alone or in different combinations.

S. haemolyticus 4069 = test: microbe, parasite or virus in culture; details: for MIC of the component in combination: 4069
Procedure: as §2, §3, §4, §5

S. haemolyticus 4070 = test: microbe, parasite or virus in culture; details: for MIC of the component in combination: 4070
Procedure: as §2, §3, §4, §5

S. haemolyticus 4072 = test: microbe, parasite or virus in culture; details: for MIC of the component in combination: 4072
Procedure: as §2, §3, §4, §5

S. haemolyticus 4073 = test: microbe, parasite or virus in culture; details: for MIC of the component in combination: 4073
Procedure: as §2, §3, §4, §5

CC1(C)S[C@@H]2[C@H](NC(=O)Cc3ccccc3)C(=O)N2[C@H]1C(=O)O [Penicillin G]
MIC (S. aureus LMG3242): 0.24 µg/mL
MIC (S. aureus LMG3255): < 0.24 µg/mL
MIC (S. aureus LMG3263): 125 µg/mL
MIC (S. aureus LMG3264): 4 µg/mL
MIC (S. aureus LMG3307): < 0.24 µg/mL

MKFKFNPTGTIVKKLTQYEINWYKQQYGRYPWERPVA [Hybrid K1-EJ]
MIC (S. haemolyticus 4068; 4068, 5 h): 0.78 µg/mL
MIC (S. haemolyticus 4068; 4068, 24 h): >100 µg/mL
MIC (S. haemolyticus 4068; 4068, 48 h): >100 µg/mL
MIC of the component in combination (S. haemolyticus 4068; 5 h, K1-EJ + GarKS): 0.83 µg/mL
MIC of the component in combination (S. haemolyticus 4068; 5 h, K1-EJ + GarKS + MP1): 0.32 µg/mL
MIC of the component in combination (S. haemolyticus 4068; 5 h, K1-EJ + MP1): 0.2 µg/mL
MIC of the component in combination (S. haemolyticus 4068; 24 h, K1-EJ + GarKS): 3.1 µg/mL
MIC of the component in combination (S. haemolyticus 4068; 24 h, K1-EJ + GarKS + MP1): 0.78 µg/mL
MIC of the component in combination (S. haemolyticus 4068; 24 h, K1-EJ + MP1): 0.78 µg/mL
MIC of the component in combination (S. haemolyticus 4068; 48 h, K1-EJ + GarKS): 6 µg/mL
MIC of the component in combination (S. haemolyticus 4068; 48 h, K1-EJ + GarKS + MP1): 2.8 µg/mL
MIC of the component in combination (S. haemolyticus 4068; 48 h, K1-EJ + MP1): 0.72 µg/mL
MIC (S. haemolyticus 4069; 4069, 5 h): 0.78 µg/mL
MIC (S. haemolyticus 4069; 4069, 24 h): 0.78 µg/mL
MIC (S. haemolyticus 4069; 4069, 48 h): >100 µg/mL
MIC of the component in combination (S. haemolyticus 4069; 5 h, K1-EJ + GarKS): 1.4 µg/mL
MIC of the component in combination (S. haemolyticus 4069; 5 h, K1-EJ + GarKS + MP1): 0.68 µg/mL
MIC of the component in combination (S. haemolyticus 4069; 5 h, K1-EJ + MP1): 1.5 µg/mL
MIC of the component in combination (S. haemolyticus 4069; 24 h, K1-EJ + GarKS): 6 µg/mL
MIC of the component in combination (S. haemolyticus 4069; 24 h, K1-EJ + GarKS + MP1): 3.3 µg/mL
MIC of the component in combination (S. haemolyticus 4069; 24 h, K1-EJ + MP1): 23 µg/mL
MIC of the component in combination (S. haemolyticus 4069; 48 h, K1-EJ + GarKS): 6.5 µg/mL
MIC of the component in combination (S. haemolyticus 4069; 48 h, K1-EJ + GarKS + MP1): 5.8 µg/mL
MIC of the component in combination (S. haemolyticus 4069; 48 h, K1-EJ + MP1): 48 µg/mL
MIC (S. haemolyticus 4070; 4070, 5 h): 0.78 µg/mL
MIC (S. haemolyticus 4070; 4070, 24 h): >100 µg/mL
MIC (S. haemolyticus 4070; 4070, 48 h): >100 µg/mL
MIC of the component in combination (S. haemolyticus 4070; 5 h, K1-EJ + GarKS): 0.72 µg/mL
MIC of the component in combination (S. haemolyticus 4070; 5 h, K1-EJ + GarKS + MP1): 0.32 µg/mL
MIC of the component in combination (S. haemolyticus 4070; 5 h, K1-EJ + MP1): 0.2 µg/mL
MIC of the component in combination (S. haemolyticus 4070; 24 h, K1-EJ + GarKS): 3.3 µg/mL
MIC of the component in combination (S. haemolyticus 4070; 24 h, K1-EJ + GarKS + MP1): 2.8 µg/mL
MIC of the component in combination (S. haemolyticus 4070; 24 h, K1-EJ + MP1): 2.8 µg/mL
MIC of the component in combination (S. haemolyticus 4070; 48 h, K1-EJ + GarKS): 6.3 µg/mL
MIC of the component in combination (S. haemolyticus 4070; 48 h, K1-EJ + GarKS + MP1): 5.8 µg/mL
MIC of the component in combination (S. haemolyticus 4070; 48 h, K1-EJ + MP1): 6 µg/mL
MIC (S. haemolyticus 4072; 4072, 5 h): 0.78 µg/mL
MIC (S. haemolyticus 4072; 4072, 24 h): >100 µg/mL
MIC (S. haemolyticus 4072; 4072, 48 h): >100 µg/mL
MIC of the component in combination (S. haemolyticus 4072; 5 h, K1-EJ + GarKS): 1.5 µg/mL
MIC of the component in combination (S. haemolyticus 4072; 5 h, K1-EJ + GarKS + MP1): 0.68 µg/mL
MIC of the component in combination (S. haemolyticus 4072; 5 h, K1-EJ + MP1): 0.36 µg/mL
MIC of the component in combination (S. haemolyticus 4072; 24 h, K1-EJ + GarKS): 12 µg/mL
MIC of the component in combination (S. haemolyticus 4072; 24 h, K1-EJ + GarKS + MP1): 1.6 µg/mL
MIC of the component in combination (S. haemolyticus 4072; 24 h, K1-EJ + MP1): 1.5 µg/mL
MIC of the component in combination (S. haemolyticus 4072; 48 h, K1-EJ + GarKS): 13 µg/mL
MIC of the component in combination (S. haemolyticus 4072; 48 h, K1-EJ + GarKS + MP1): 5.8 µg/mL
MIC of the component in combination (S. haemolyticus 4072; 48 h, K1-EJ + MP1): 1.6 µg/mL
MIC (S. haemolyticus 4073; 4073, 5 h): 0.78 µg/mL
MIC (S. haemolyticus 4073; 4073, 24 h): >100 µg/mL
MIC (S. haemolyticus 4073; 4073, 48 h): >100 µg/mL
MIC of the component in combination (S. haemolyticus 4073; 5 h, K1-EJ + GarKS): 1.7 µg/mL
MIC of the component in combination (S. haemolyticus 4073; 5 h, K1-EJ + GarKS + MP1): 0.33 µg/mL
MIC of the component in combination (S. haemolyticus 4073; 5 h, K1-EJ + MP1): 0.2 µg/mL
MIC of the component in combination (S. haemolyticus 4073; 24 h, K1-EJ + GarKS): 6.3 µg/mL
MIC of the component in combination (S. haemolyticus 4073; 24 h, K1-EJ + GarKS + MP1): 0.78 µg/mL
MIC of the component in combination (S. haemolyticus 4073; 24 h, K1-EJ + MP1): 0.36 µg/mL
MIC of the component in combination (S. haemolyticus 4073; 48 h, K1-EJ + GarKS): 12 µg/mL
MIC of the component in combination (S. haemolyticus 4073; 48 h, K1-EJ + GarKS + MP1): 1.6 µg/mL
MIC of the component in combination (S. haemolyticus 4073; 48 h, K1-EJ + MP1): 0.85 µg/mL
